Test results from patent US20110166136A1, “Calcium Ion Channel Modulators & Uses Thereof” (LECTUS THERAPEUTICS LIMITED, priority 2008, published 2011).

Key:
N-type/Cav2.2 channels = target: T1, N-type/Cav2.2 channels (Homo sapiens, UniProt Q00975); test: Whole-cell patch-clamp recording of barium currents carried by calcium channels in primary dorsal root ganglion neurons; type: cell-based; settings: 0.5 Hz stimulation, 100-ms steps to 0 mV from -70 mV, DRG neurons with Cm <40 pf
T1 construct: Primary dorsal root ganglion neurons were isolated using standard techniques; endogenous in cells
T1 sequence (Q00975 whole entry): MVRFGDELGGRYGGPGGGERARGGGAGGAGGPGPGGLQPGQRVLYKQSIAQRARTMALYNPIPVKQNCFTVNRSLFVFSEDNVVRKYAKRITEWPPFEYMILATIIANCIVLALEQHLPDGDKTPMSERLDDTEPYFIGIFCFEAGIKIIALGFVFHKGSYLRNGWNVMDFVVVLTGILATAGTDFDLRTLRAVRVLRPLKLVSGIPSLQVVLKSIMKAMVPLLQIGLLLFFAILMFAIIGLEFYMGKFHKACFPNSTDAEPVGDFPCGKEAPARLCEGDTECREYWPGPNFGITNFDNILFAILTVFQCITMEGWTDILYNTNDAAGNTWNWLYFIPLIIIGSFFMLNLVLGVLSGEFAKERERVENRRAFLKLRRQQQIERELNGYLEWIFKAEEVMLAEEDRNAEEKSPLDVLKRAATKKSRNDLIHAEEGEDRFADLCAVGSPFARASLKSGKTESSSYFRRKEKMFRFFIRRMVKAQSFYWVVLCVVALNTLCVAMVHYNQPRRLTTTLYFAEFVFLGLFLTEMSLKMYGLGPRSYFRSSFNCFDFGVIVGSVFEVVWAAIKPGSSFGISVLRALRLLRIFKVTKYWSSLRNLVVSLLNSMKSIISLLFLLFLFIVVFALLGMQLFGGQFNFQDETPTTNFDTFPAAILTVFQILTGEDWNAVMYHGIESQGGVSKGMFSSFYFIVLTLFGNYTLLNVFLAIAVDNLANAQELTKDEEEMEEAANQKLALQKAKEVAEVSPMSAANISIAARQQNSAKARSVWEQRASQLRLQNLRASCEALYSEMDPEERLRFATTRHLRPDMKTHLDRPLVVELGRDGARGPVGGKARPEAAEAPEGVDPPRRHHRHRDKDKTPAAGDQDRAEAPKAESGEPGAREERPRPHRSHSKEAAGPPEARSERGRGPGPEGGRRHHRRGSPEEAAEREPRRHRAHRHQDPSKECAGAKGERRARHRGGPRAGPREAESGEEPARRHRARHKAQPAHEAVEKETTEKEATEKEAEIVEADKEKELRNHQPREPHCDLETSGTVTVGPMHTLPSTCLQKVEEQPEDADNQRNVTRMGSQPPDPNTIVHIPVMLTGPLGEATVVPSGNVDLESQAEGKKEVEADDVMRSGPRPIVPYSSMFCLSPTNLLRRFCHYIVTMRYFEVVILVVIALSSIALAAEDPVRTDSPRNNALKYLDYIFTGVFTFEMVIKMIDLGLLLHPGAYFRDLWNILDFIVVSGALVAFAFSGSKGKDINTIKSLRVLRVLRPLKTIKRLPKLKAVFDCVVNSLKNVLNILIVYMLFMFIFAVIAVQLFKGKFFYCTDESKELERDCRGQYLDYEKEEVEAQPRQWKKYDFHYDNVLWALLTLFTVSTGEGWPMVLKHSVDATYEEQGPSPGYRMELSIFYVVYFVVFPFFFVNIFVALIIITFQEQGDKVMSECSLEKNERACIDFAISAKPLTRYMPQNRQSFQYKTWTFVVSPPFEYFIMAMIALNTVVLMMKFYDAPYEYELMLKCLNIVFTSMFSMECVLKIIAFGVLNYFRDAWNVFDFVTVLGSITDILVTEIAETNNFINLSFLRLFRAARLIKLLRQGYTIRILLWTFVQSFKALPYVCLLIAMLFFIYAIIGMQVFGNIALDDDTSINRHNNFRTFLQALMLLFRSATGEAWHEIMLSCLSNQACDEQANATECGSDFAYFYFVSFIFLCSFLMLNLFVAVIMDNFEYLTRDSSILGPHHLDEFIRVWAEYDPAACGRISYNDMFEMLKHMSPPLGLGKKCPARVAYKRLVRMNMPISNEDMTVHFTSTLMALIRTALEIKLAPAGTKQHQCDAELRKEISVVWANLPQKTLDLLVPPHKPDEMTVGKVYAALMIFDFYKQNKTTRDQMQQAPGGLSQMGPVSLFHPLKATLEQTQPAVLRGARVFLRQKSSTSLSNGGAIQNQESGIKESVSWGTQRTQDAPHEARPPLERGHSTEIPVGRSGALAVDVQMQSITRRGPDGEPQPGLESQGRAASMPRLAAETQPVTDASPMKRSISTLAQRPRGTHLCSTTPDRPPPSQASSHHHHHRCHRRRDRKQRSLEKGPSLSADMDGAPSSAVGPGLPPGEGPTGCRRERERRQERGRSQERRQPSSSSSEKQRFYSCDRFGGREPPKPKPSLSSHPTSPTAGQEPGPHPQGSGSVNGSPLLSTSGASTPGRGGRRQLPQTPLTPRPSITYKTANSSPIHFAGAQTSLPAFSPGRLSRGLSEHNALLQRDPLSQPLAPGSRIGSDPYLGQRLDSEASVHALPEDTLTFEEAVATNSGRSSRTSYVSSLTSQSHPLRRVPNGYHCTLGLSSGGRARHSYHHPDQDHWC
T1 sequence (P54289 25-956 partner limits assumed): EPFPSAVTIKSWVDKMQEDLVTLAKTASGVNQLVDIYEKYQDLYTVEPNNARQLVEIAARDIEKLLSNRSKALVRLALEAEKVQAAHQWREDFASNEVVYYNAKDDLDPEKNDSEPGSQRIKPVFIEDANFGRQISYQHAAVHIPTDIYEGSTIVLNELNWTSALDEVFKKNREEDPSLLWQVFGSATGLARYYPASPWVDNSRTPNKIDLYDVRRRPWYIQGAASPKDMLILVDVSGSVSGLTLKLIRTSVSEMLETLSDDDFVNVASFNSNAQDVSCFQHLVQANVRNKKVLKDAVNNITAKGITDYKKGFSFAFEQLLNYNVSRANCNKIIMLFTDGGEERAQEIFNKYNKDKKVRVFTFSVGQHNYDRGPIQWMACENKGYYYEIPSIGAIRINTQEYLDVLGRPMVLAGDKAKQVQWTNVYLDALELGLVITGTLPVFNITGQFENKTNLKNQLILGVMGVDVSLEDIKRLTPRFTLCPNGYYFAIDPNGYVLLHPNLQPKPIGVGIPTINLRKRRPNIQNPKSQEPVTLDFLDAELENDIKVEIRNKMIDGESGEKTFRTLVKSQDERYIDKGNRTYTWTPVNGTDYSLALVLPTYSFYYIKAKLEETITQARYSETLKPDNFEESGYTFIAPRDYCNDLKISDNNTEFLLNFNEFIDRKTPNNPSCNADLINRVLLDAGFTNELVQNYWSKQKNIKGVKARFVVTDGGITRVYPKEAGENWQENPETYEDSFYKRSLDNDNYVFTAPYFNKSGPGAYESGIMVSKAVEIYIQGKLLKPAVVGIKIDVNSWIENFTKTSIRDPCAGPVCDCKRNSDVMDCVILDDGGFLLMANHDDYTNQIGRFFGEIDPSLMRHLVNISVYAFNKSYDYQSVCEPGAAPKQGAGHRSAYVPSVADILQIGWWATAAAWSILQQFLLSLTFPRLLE
T1 sequence (P54289 957-1103 partner limits assumed): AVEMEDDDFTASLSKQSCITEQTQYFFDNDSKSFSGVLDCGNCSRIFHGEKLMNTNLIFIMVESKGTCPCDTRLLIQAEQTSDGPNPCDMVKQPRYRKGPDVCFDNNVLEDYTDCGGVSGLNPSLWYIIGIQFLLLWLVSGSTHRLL
Protocol: Primary dorsal root ganglion neurons were isolated using standard techniques and placed in Ca^2+/Mg^2+ free phosphate-buffered saline (PBS). Hemisection of the spinal column and cord was performed and the ganglia were uncovered by gently lifting the spinal cord. They were placed in a dissociation solution (PBS) containing 1 mg/ml Collagenase (type XI) and trypsin (type II-S). Ganglia were incubated in the dissociation solution for 20 minutes at room temperature, followed by 20 minutes at 37° C. Ganglia were washed in culture medium, Dulbecco's Minimum essential medium (DMEM), supplemented with fetal calf serum (10%, Gibco), penicillin/strepromycin and glutamine (Glutamax, Gibco). Cells were dispersed by trituration and plated on poly-L-lysine-coated 35-mm dishes (BD Bioscience). Cells were kept in culture in a humidified atmosphere (37° C., 5% CO2) for up to 4 days for electrophysiological recordings. Unless otherwise noted, all reagents were purchased from Sigma-Aldrich.
Barium currents carried by calcium channels were recorded using the whole-cell configuration of the patch-clamp technique. All experiments were carried out at room temperature. Cells were bathed in an external solution containing, in mM: TEA-CI, 140; BaCl2, 5; MgCl2, 1; HEPES, 10; pH 7.3 adjusted with TEA-OH. Ba^2+ was used as a charge carrier to prevent the run-down caused by Ca^2+-activated inactivation of Ca^2+ channels. […] Electrophysiological recordings were generated and acquired with a patch-clamp amplifier (Axopatch 200B, or Multiclamp 7; Molecular devices) connected to a personal computer. Online and offline analysis was carried out using the pClamp software suite (v.9, Molecular Devices). Compounds were all prepared from 100 mM stocks in 100% dimethyl sulfoxide (DMSO) and further diluted in external solution to achieve the desired final concentration. Final DMSO concentration was always <0.1%. For the assessment of activity of the compounds, only cells with a membrane capacitance (Cm)<40 pf were used, as the Ca2+ current in these cells is carried mostly through N-type/Cav2.2 channels. Cell membrane potential was held at −70 mV and currents were elicited by a series of 100-ms steps to 0 mV, at a frequency of 0.1 Hz. After the establishment of a steady baseline current, the compound was applied to the bath. When the block induced by the compound reached a steady level, the frequency was then increased to 0.5 Hz, to assess use-dependence. After stabilization of the high frequency block, step depolarizations were stopped and cell membrane potential was kept at −70 mV for 100-120 s, after which 0.1 Hz stimulation (100 ms, 0 mV) was elicited, to assess recovery of the block. ω-conotoxin GVIA (100 nM; Alomone labs) was added at the end of the experiment to quantify the remaining N-type current. Selectivity of the compounds over non-N-type currents was studied using similar stimulation protocols, in a bath solution containing ω-conotoxin GVIA (100 nM).

[1] = test system: α2-δ voltage-gated calcium channel; settings: compared with gabapentin; cited from earlier work
[2] = DRG neuron, compound concentration 1 uM

Molecule	inhibition at 1 µM (N-type/Cav2.2 channels; [2]) [%]	further results
O=C(O)C(=O)c1c[nH]c2cc(F)ccc12 [Compound 20, 2-(6-fluoro-1H-indol-3-yl)-2-oxoacetic acid]	55	–
COc1ccc2c(C(=O)C(=O)O)c[nH]c2c1 [Compound 31, 2-(6-methoxy-1H-indol-3-yl)-2-oxoacetic acid]	–	inhibition at 0.1 µM (N-type/Cav2.2 channels; DRG neuron, compound concentration 0.1 uM): 36%
COc1ccc2c(C(=O)C(=O)N3CCOCC3)c[nH]c2c1 [Compound 57, 1-(6-methoxy-1H-indol-3-yl)-2-morpholinoethane-1,2-dione]	44	–
COc1ccc2c(C(=O)C(=O)N3CCN(C)CC3)c[nH]c2c1 [Compound 77, 1-(6-methoxy-1H-indol-3-yl)-2-(4-methylpiperazin-1-yl)ethane-1,2-dione]	55	–
CC(C)C[C@H](CN)CC(=O)O [Pregabalin, pregabalin]	–	potency in binding affinity to the α2-δ voltage-gated calcium channel relative to gabapentin [1]: six-times more potent than gabapentin
ethyl 2-(6-methoxy-1H-indol-3-yl)-2-oxoacetate [Compound 40]	–	% Inhibition at 0.5 Hz (N-type/Cav2.2 channels; compound concentration 1 uM): 57%
